# Source: ChEMBL document CHEMBL1201862, “PubChem BioAssay data set” (2004)
# Activity calls are given as the source filed them. Cut-off read from the data, not from the text of the source: actives have a measured IC50 and inactives only a lower limit.
# Target: Envelope glycoprotein gp160 (Human immunodeficiency virus 1, UniProt Q6QLK5)
# Assay: inhibitors of HIV fusion peptide binding, primary screen, biochemical, uHTS, fluorescence dequenching (AID 1986)
# Chain of Envelope glycoprotein gp160 (Q6QLK5 whole entry, the tested form may be a part): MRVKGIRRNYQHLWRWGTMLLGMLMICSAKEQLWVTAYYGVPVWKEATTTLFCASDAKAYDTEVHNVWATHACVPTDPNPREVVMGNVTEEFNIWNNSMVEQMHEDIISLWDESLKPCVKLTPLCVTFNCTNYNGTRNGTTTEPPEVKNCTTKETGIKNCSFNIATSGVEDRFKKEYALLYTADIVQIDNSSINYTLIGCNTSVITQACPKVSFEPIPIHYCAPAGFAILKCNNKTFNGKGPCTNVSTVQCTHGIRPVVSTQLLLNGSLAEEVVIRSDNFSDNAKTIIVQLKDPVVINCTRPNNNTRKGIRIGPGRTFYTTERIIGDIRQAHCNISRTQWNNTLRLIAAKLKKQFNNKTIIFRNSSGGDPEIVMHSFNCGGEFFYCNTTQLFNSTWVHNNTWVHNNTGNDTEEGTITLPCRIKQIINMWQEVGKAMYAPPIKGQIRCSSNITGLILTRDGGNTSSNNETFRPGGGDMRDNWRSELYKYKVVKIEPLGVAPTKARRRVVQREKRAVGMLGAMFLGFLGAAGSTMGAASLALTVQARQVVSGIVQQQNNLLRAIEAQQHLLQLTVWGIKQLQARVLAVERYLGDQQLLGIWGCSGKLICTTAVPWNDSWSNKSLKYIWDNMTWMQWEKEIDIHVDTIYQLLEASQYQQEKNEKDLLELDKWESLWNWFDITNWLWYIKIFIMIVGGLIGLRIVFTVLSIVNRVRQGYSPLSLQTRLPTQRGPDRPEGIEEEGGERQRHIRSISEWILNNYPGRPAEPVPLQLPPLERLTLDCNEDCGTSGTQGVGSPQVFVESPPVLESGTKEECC
row,Compound,IC50
1,O=C(COc1ccc2ccccc2c1)Nc1cccc(C(=O)Nc2ccccc2C(=O)O)c1,14.3 µM (active)
2,CCOC(=O)c1sc(N2C(=O)C(O)=C(C(=O)c3ccco3)C2c2ccc([N+](=O)[O-])cc2)nc1C (stereo not given),17.6 µM (active)
3,O=C(O)c1ccc(Nc2nc(-c3cc4ccccc4oc3=O)cs2)cc1O,11.5 µM (active)
4,O=C(O)CCN1C(=O)/C(=C\c2cccc(OCC(=O)Nc3ccc(Cl)cc3)c2)SC1=S,13.2 µM (active)
5,COc1ccccc1OCCOc1ccc(/C=C2\C(=N)N3N=C(S(C)(=O)=O)SC3=NC2=O)cc1,33.8 µM (active)
